Data on 2 molecules can be found in patent US11427574B2, “Compounds for treating Rac-GTPase mediated disorder” (Children's Medical Center Corporation, priority 2015, dated 2022).

For one experiment, the target named is SRC (Homo sapiens, UniProt P12931). Description: Kinase screening. It counts as biochemical. Here is the method:
(§1) Compound 1 was tested for its efficacy in inhibiting activities of 40 kinases and binding with 12 GPCRs both as an antagonist and an agonist.

Another experiment deals with IGF1R (Homo sapiens, UniProt P08069). The experiment in a line: Kinase screening. The experiment is classed as biochemical. Here is the method: as §1
A further experiment has as its target PAK6 (Homo sapiens, UniProt Q9NQU5). Description: Kinase screening. It counts as biochemical. Here is the method: as §1
The target in another experiment is JAK2 (Homo sapiens, UniProt O60674). The experiment in a line: Kinase screening. The experiment is classed as biochemical. The protocol: as §1
The target of a further experiment is ROCK1 (Homo sapiens, UniProt Q13464). Description: Kinase screening. It counts as biochemical. Here is the method:
as §1

The target of a further experiment is JAK3 (Homo sapiens, UniProt P52333). Description: Kinase screening. It counts as biochemical. The protocol:
as §1

In a further experiment the target is EGFR (ErbB1) (Homo sapiens, UniProt P00533). Description: Kinase screening. The experiment is classed as biochemical. Here is the method:
as §1

In a further experiment the target is MYLK (MLCK) (Homo sapiens, UniProt Q15746). Description: Kinase screening. It counts as biochemical. Here is the method: as §1
A further experiment has as its target ROCK2 (Homo sapiens, UniProt O75116). Description: Kinase screening. It counts as biochemical. The protocol: as §1
In a further experiment the target is MAPK8 (JNK1) (Homo sapiens, UniProt P45983). The experiment in a line: Kinase screening. It counts as biochemical. The protocol: as §1
In a further experiment the target is SYK (Homo sapiens, UniProt P43405). The experiment in a line: Kinase screening. The experiment is classed as biochemical. Here is the method:
as §1

Another experiment deals with PIK3C3 (hVPS34) (Homo sapiens, UniProt Q8NEB9). The experiment in a line: Kinase screening. It counts as biochemical. The protocol: as §1
Another experiment addresses ABL1 (Homo sapiens, UniProt P00519). Description: Kinase screening. The experiment is classed as biochemical. Here is the method: as §1
A further experiment concerns the target PIK3C2A (PI3K-C2 alpha) (Homo sapiens, UniProt O00443). The experiment in a line: Kinase screening. It counts as biochemical. The protocol: as §1
The next experiment concerns the target PAK7 (KIAA1264) (Homo sapiens, UniProt Q9P286). The experiment in a line: Kinase screening. It counts as biochemical. The protocol:
as §1

The target of another experiment is PIK3C2B (PI3K-C2 beta) (Homo sapiens, UniProt O00750). Description: Kinase screening. The experiment is classed as biochemical. Here is the method:
as §1

Experiment [1] concerns the target PIK3CA/PIK3R1 (p110 alpha/p85 alpha) (Homo sapiens, UniProt P42336). Description: Kinase screening. It counts as biochemical. Here is the method: as §1
For a further experiment, the target named is EPHB1 (Homo sapiens, UniProt P54762). The experiment in a line: Kinase screening. The experiment is classed as biochemical. Here is the method: as §1
The target of another experiment is LIMK2 (Homo sapiens, UniProt P53671). The experiment in a line: Kinase screening. The experiment is classed as biochemical. The protocol:
as §1

A further experiment has as its target AKT1 (PKB alpha) (Homo sapiens, UniProt P31749). The experiment in a line: Kinase screening. The experiment is classed as biochemical. The protocol:
as §1

A further experiment has as its target PAK2 (PAK65) (Homo sapiens, UniProt Q13177). Description: Kinase screening. It counts as biochemical. Here is the method: as §1
Another experiment addresses MAP2K2 (MEK2) (Homo sapiens, UniProt P36507). Description: Kinase screening. It counts as biochemical. Here is the method:
as §1

The next experiment deals with MAPK3 (ERK1) (Homo sapiens, UniProt P27361). Description: Kinase screening. It counts as biochemical. Here is the method: as §1
In a further experiment the target is PAK1 (Homo sapiens, UniProt Q13153). The experiment in a line: Kinase screening. The experiment is classed as biochemical. The protocol:
as §1

The target in another experiment is PAK3 (Homo sapiens, UniProt O75914). The experiment in a line: Kinase screening. It counts as biochemical. The protocol: as §1
Experiment [2] has as its target PIK3CD/PIK3R1 (p110 delta/p85 alpha) (Homo sapiens, UniProt O00329). Description: Kinase screening. The experiment is classed as biochemical. The protocol: as §1
For a further experiment, the target named is FRAP1 (mTOR) (Homo sapiens, UniProt P42345). Description: Kinase screening. The experiment is classed as biochemical. The protocol: as §1
Another experiment concerns the target PAK4 (Homo sapiens, UniProt O96013). Description: Kinase screening. It counts as biochemical. Here is the method:
as §1

In the next experiment the target is CDC42 BPA (MRCKA) (Homo sapiens, UniProt Q5VT25). Description: Kinase screening. It counts as biochemical. Here is the method:
as §1

A further experiment has as its target CDK5/p25 (Homo sapiens, UniProt Q00535). Description: Kinase screening. The experiment is classed as biochemical. The protocol:
as §1

A further experiment concerns the target PDGFRA (PDGFR alpha) (Homo sapiens, UniProt P16234). Description: Kinase screening. The experiment is classed as biochemical. The protocol:
as §1

The next experiment has as its target LIMK1 (Homo sapiens, UniProt P53667). Description: Kinase screening. The experiment is classed as biochemical. Here is the method: as §1
A further experiment has as its target KIT (Homo sapiens, UniProt P10721). Description: Kinase screening. It counts as biochemical. Here is the method: as §1
The next experiment deals with AKT2 (PKB beta) (Homo sapiens, UniProt P31751). The experiment in a line: Kinase screening. It counts as biochemical. Here is the method:
as §1

The target in a further experiment is MAP3K2 (MEKK2) (Homo sapiens, UniProt Q9Y2U5). Description: Kinase screening. It counts as biochemical. The protocol: as §1
A further experiment has as its target JAK1 (Homo sapiens, UniProt P23458). The experiment in a line: Kinase screening. The experiment is classed as biochemical. Here is the method:
as §1

The target of a further experiment is FLT3 (Homo sapiens, UniProt P36888). The experiment in a line: Kinase screening. It counts as biochemical. Here is the method: as §1
For the next experiment, the target named is MAPK9 (JNK2) (Homo sapiens, UniProt P45984). Description: Kinase screening. It counts as biochemical. Here is the method:
as §1

The target of a further experiment is CDC42 BPB (MRCKB) (Homo sapiens, UniProt Q9Y5S2). The experiment in a line: Kinase screening. It counts as biochemical. The protocol:
as §1

Another experiment addresses CDK1/cyclin B (Homo sapiens, UniProt P06493). Description: Kinase screening. The experiment is classed as biochemical. Here is the method: as §1
Another experiment concerns P12-ICHIKAWA cells. Description: In vivo P12-ICHIKAWA leukemia model in NSG mice. The following applies: 50 mg/Kg body weight oral twice daily; supine position, vs vehicle. The protocol:
Specifically, cell line P12-ICHIKAWA was marked with a lentiviral vector coexpressing Luciferase and an mCherry fluorescent tag. Sorted mCherry positive P12-ICHIKAWA cells were injected into immunodeficient (NSG) mice. About 3 weeks after injection, based on an estimation of the tumor burden by quantitative assessment of bioluminescence imaging (BLI) in vivo, mice began treatment. Mice received twice daily oral doses of Compound 2 (50 mg/Kg body weight) or placebo. Each of the Compound 2 group and the vehicle group had eight mice. BLI analysis was performed three times a week to assess tumor burden. Toxicity was assessed by evaluating body weight in treated mice vs vehicle group (see FIG. 13a). The experiment was halted at day 18 after beginning of treatment due to the very aggressive nature of the disease in the vehicle group. Mice were imaged in the supine and prone position. FIG. 13b summarizes BLI values normalized to treatment start in both the compound 2 group and the vehicle group in the supine position.

A further experiment relates to SEM cell line. The experiment in a line: Annexin V flow assay for apoptosis and cell death, SEM. It counts as cell-based. The following applies: Annexin V staining. The source says:
FIGS. 3a-3c show three graphs illustrating the dose dependent inhibition of proliferation of Compound 1 in SEM, P12, and Loucy cells as measured by MTS assay. […] Compound 1 was further analyzed for its effect on cell apoptosis and cell death using a flow based assay using Annexin V staining.
Compound 2 was further analyzed for its effect on cell apoptosis and cell death using a flow based assay using Annexin V staining.

For a further experiment, the target named is Tiam1-Rac complex (Homo sapiens, UniProt P63000). Description: Homologous time resolved fluorescence (HTRF) binding assay. The protocol: (§2) Compound 1 was tested for its efficacy in binding with Rac1 in two independent binding assays, i.e., 2D NMR spectroscopy and Homologous time resolved fluorescence assay (HTRF).
(§3) In the 2D NMR assay, samples containing 50 μM Rac1 and 250 μM or 400 μM Compound 1 were used.
(§4) Compound 2 was tested for its efficacy in binding with Rac1 in two independent binding assays, i.e., 2D NMR spectroscopy and Homologous time resolved fluorescence assay (HTRF).
(§5) In the 2D NMR assay, a sample containing 50 μM Rac1 and 250 μM Compound 2 was used.

Another experiment deals with Rac1 (Homo sapiens, UniProt P63000). Description: 2D NMR spectroscopy binding assay. Particulars: 50 μM Rac1 and 250 μM Compound 2. Here is the method:
as §2, §3, §4, §5

The next experiment deals with cancer cell. The experiment in a line: Cellular proliferation assay of SAR analogs. It counts as cell-based. The following applies: among 48 tested SAR analogs. The protocol: SAR was performed to identify analogs of Compound that have improved properties. 56 Compounds identified in this SAR study were synthesized. Among them, 48 compounds were tested a cellular proliferation assay.

A further experiment concerns SEM cells. The experiment in a line: Proliferation assay in SEM leukemia cells. It counts as cell-based. The following applies: compared to Compound 1 (FIG. 12a). The protocol: Dose Dependent Inhibition of Proliferation The 100 compounds selected from the initial in silico screen were assayed for inhibition of proliferation in two leukemia cell lines, SEM and P12 by Cell Titer Glo. The cells for the proliferation assay were spun down and re-suspended. The cell suspension was then divided and the compound to be tested added in desired concentrations and subsequently plated. Following an incubation period, the Cell Titer Glo reagent (Promega CellTiter 96® Aqueous Non-Radioactive Cell Proliferation Assay) was added and allowed to incubate. The absorbance is subsequently measured at 490 nm using a plate reader. Each compound was analyzed for its effects on cell proliferation.
The lead compound, i.e. Compound 1, was analyzed for its effect on cell proliferation at various doses on three different leukemia cell lines: SEM, P12, and Loucy. In order to quantitate the percentage inhibition of cell proliferation, Cell Titer Glo analysis was completed as described in Example 2 above.
FIGS. 3a-3c show three graphs illustrating the dose dependent inhibition of proliferation of Compound 1 in SEM, P12, and Loucy cells as measured by MTS assay. […] Compound 1 was further analyzed for its effect on cell apoptosis and cell death using a flow based assay using Annexin V staining. […]

Sequence of IGF1R (P08069 31-1367, species assumed): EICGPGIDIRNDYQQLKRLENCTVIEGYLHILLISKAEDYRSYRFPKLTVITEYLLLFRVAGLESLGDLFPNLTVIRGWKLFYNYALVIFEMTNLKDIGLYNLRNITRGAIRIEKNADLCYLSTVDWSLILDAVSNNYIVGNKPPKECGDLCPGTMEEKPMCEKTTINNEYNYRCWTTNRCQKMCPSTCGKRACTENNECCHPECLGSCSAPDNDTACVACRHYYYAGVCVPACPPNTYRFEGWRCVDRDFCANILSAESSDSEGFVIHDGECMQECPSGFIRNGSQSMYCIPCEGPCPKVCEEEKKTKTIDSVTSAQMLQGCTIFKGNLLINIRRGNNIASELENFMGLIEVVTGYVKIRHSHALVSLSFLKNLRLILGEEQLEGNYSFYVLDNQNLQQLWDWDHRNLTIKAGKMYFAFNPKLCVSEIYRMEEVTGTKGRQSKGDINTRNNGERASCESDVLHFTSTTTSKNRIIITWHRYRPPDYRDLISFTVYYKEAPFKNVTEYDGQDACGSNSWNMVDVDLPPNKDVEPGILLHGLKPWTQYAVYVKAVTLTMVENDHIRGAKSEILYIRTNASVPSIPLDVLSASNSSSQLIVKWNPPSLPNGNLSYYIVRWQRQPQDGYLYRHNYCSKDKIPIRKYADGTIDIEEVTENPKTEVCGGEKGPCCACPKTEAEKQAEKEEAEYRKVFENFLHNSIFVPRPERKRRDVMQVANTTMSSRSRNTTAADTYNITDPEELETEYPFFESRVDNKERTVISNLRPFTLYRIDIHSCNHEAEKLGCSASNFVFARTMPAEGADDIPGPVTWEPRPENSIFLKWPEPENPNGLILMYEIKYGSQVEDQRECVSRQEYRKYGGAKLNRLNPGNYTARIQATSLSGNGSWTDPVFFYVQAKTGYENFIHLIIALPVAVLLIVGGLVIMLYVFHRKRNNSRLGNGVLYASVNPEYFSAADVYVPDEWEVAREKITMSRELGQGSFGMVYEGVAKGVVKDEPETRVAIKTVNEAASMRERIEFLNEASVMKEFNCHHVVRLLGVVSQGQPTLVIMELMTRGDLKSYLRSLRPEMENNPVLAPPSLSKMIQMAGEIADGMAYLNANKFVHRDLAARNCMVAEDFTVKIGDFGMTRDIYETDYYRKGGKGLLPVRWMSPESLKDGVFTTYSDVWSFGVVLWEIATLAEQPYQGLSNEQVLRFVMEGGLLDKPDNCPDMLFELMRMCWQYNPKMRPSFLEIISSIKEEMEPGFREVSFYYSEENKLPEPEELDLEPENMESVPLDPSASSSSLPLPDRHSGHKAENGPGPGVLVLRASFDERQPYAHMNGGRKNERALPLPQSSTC
Sequence of PIK3C3 (hVPS34) (Q8NEB9 whole entry): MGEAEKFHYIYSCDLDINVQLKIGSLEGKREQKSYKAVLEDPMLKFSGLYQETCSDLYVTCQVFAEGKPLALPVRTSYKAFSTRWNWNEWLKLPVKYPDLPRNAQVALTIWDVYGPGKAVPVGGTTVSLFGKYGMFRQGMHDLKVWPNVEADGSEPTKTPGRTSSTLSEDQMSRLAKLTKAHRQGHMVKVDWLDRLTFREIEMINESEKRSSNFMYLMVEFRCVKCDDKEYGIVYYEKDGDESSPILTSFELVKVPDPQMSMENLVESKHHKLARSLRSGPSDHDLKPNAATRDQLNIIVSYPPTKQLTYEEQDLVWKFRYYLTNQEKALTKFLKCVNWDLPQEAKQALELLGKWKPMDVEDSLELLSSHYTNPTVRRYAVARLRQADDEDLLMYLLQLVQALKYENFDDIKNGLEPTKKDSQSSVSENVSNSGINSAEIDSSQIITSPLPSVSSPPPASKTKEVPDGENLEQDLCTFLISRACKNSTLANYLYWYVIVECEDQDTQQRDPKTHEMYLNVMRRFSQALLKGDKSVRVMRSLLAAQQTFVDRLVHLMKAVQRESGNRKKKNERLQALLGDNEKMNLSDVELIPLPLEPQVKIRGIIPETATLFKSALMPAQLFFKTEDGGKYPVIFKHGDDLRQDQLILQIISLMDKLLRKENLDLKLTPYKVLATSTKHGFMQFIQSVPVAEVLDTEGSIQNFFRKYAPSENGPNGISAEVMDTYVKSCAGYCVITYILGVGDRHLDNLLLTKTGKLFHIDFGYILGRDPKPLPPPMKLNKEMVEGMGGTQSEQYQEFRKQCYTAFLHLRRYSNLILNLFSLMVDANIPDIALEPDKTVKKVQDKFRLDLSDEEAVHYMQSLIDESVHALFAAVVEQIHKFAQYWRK
Sequence of EPHB1 (P54762 18-984, species assumed): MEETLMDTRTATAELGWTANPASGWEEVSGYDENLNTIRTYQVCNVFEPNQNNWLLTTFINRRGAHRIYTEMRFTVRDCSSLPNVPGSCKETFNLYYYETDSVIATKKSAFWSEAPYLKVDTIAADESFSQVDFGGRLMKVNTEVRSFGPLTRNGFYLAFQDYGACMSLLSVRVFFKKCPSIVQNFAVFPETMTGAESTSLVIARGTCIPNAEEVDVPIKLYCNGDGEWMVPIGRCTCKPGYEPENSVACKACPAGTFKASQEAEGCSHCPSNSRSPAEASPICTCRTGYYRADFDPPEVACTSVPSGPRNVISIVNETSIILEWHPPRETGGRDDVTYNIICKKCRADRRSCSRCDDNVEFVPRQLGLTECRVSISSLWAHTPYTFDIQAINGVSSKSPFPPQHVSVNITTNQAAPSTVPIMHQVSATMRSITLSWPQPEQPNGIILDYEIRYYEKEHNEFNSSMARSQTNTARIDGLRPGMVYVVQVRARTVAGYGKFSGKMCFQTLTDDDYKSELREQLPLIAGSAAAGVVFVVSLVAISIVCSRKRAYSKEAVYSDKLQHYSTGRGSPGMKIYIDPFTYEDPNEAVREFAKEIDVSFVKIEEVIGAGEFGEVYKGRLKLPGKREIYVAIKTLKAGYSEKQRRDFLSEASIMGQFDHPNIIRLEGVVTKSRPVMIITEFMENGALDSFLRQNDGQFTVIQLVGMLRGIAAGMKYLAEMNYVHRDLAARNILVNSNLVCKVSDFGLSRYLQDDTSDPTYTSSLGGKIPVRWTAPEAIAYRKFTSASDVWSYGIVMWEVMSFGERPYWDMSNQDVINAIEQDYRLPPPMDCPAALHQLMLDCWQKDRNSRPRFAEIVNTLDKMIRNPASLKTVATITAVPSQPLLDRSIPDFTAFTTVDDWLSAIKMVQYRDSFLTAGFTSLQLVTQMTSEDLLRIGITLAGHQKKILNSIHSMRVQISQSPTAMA
Sequence of JAK2 (O60674 whole entry, species assumed): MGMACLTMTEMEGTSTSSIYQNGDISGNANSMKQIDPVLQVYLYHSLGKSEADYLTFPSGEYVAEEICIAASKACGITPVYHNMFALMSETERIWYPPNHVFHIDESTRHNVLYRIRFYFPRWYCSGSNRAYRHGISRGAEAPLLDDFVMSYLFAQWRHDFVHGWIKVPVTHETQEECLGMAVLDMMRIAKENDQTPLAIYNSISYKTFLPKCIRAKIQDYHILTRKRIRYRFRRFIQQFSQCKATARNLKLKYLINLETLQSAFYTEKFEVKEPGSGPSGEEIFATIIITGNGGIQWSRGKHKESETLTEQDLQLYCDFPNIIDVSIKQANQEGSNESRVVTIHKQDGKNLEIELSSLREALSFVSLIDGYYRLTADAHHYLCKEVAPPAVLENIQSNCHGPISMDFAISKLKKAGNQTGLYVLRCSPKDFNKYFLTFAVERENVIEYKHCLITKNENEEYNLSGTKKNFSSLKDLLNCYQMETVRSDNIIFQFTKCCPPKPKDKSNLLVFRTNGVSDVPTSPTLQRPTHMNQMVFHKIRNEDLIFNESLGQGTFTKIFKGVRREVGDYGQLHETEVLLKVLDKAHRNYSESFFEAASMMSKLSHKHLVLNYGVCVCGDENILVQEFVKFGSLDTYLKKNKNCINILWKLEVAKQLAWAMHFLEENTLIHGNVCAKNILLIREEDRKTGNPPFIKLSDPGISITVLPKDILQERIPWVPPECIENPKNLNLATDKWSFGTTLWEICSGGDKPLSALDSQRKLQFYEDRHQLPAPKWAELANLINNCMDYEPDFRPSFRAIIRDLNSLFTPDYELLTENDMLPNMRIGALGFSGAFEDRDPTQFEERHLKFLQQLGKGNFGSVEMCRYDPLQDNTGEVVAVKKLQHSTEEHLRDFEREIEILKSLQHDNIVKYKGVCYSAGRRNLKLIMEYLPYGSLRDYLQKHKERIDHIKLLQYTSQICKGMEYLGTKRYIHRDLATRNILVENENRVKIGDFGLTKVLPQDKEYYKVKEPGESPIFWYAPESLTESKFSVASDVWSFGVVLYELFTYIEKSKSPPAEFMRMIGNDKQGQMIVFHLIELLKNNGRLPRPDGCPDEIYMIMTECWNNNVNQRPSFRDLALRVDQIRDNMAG
Sequence of PAK2 (PAK65) (Q13177 whole entry, species assumed): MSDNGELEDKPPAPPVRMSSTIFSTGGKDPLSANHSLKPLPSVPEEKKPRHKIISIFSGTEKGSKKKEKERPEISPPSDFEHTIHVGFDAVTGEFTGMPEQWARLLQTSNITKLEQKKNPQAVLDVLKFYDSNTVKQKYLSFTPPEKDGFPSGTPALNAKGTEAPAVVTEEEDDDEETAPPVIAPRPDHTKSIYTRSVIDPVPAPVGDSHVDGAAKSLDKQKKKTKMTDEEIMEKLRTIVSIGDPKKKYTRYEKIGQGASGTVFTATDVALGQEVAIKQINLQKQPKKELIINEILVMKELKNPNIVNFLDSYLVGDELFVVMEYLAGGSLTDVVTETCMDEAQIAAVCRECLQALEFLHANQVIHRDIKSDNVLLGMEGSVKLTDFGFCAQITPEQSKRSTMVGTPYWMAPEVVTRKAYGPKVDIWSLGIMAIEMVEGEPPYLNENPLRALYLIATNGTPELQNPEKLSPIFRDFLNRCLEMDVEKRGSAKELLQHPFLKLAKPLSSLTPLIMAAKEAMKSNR

`CCN(CC)CCCC(C)Nc1nc(C)cc(Nc2ccc3nc(C)cc(N)c3c2)n1.Cl.Cl.Cl` (racemic) [NSC23766, N6-[2-[[4-(diethylamino)-1-methylbutyl]amino]-6-methyl-4-pyrimidinyl]-2-methyl-4,6-quinolinediamine trihydrochloride, reference compound]: the inhibition percentage at SRC is given as 43.6 percentage; at IGF1R, 42.9 percentage; against PAK6 it was 8.9 percentage; against JAK2 it was 37.7 percentage; at ROCK1 it was −2.0 percentage; against JAK3, 21.9 percentage. In addition, the inhibition percentage against EGFR (ErbB1) was 24.6 percentage; against MYLK (MLCK), 1.6 percentage; at ROCK2 it was −14.7 percentage; at MAPK8 (JNK1) it was −1.1 percentage; at SYK, 39.4 percentage; on PIK3C3 (hVPS34), −17.8 percentage. Further, the inhibition percentage was 19.3 percentage against ABL1; −3.3 percentage at PIK3C2A (PI3K-C2 alpha); 4.9 percentage at PAK7 (KIAA1264); −1.8 percentage on PIK3C2B (PI3K-C2 beta); −0.4 percentage in [1]; 19.8 percentage against EPHB1. Besides, the inhibition percentage against LIMK2 is −3.5 percentage; against AKT1 (PKB alpha), −23.3 percentage; at PAK2 (PAK65), 0.3 percentage; on MAP2K2 (MEK2), 20.7 percentage; against MAPK3 (ERK1), 11.5 percentage; at PAK1 it was 24.4 percentage. The inhibition percentage against PAK3 is 6.3 percentage; in experiment [2], −5.8 percentage; against FRAP1 (mTOR), 27.0 percentage; at PAK4, −0.2 percentage; on CDC42 BPA (MRCKA), −1.8 percentage; on CDK5/p25 it was 11.4 percentage. For the same molecule, the inhibition percentage at PDGFRA (PDGFR alpha) is reported as 34.8 percentage; against LIMK1 it was −14.2 percentage; on KIT it was 26.3 percentage; against AKT2 (PKB beta), −22.9 percentage; at MAP3K2 (MEKK2) it was 14.3 percentage; on JAK1, 50.6 percentage. The inhibition percentage is reported as 31.4 percentage against FLT3, −8.9 percentage at MAPK9 (JNK2), −4.6 percentage against CDC42 BPB (MRCKB) and 1.3 percentage on CDK1/cyclin B.
As for `CCc1ccc(CN(C)C(=O)CCc2nnc(CCc3c[nH]c4ccccc34)o2)cc1` [Compound 2], in the experiment on P12-ICHIKAWA cells, the “bioluminescence in the mice” value is “significantly reduced”. The “cell apoptosis and cell death” value with SEM cell line was “caused cells apoptosis and cell death”. The “binding in the HTRF assay” value at Tiam1-Rac complex is reported as “no binding”. Further, the “binding to Rac1 by 2D NMR” value on Rac1 is given as “did not indicate any significant binding”. In addition, the “inhibition of cancer cell proliferation” value with cancer cell is given as “strongest inhibition”. For the same molecule, in the experiment with SEM cells, the “efficacy in inhibiting proliferation of SEM cells” value is reported as “improved efficacy”.
